We go through 28 compounds from patent publication US7943619B2, “Isoxazolo-pyridazine derivatives” (priority 2007, dated 2011).

pKi: −log10 of the molar value.

The target of this test is human GABA A receptor α5β3γ2 (α5 subunit) (Homo sapiens, UniProt P18507+P31644). The test can be described thus: biochemical. The format is binding. The settings on record: competition for [3H]flumazenil binding, HEK293 cells transiently expressing human receptors; means of two determinations; read-out: hKi. The protocol: The affinity of compounds at GABA A receptor subtypes was measured by competition for [3H]flumazenil (85 Ci/mmol; Roche) binding to HEK293 cells expressing rat (stably transfected) or human (transiently transfected) receptors of composition α1β3γ2, α2β3γ2, α3β3γ2 and α5β3γ2.
human GABA A receptor α5β3γ2 (α5 subunit), sequence (P31644 32-462): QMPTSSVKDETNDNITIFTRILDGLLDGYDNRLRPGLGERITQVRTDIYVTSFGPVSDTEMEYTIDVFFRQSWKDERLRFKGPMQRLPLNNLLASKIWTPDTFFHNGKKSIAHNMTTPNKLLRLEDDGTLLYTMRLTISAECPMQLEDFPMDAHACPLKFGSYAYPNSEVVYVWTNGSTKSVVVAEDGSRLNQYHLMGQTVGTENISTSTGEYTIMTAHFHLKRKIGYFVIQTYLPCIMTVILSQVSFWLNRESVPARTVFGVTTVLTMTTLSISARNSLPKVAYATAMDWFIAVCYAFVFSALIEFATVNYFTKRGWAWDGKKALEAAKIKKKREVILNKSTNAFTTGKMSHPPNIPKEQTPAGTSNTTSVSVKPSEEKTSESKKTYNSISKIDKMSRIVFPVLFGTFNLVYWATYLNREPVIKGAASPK
human GABA A receptor α5β3γ2 (α5 subunit), sequence (P28472 26-473 partner): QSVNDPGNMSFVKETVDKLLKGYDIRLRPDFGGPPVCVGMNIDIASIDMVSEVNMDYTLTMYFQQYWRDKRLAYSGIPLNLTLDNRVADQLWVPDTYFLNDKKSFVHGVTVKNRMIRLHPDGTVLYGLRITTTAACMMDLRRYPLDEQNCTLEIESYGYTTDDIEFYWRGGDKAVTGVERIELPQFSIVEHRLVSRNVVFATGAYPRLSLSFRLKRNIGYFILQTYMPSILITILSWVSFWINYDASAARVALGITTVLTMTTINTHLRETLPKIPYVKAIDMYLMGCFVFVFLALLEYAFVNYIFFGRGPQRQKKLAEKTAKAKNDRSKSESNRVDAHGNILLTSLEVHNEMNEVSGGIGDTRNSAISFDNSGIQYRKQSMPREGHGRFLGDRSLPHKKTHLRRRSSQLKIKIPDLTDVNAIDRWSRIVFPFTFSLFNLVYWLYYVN
human GABA A receptor α5β3γ2 (α5 subunit), sequence (P18507 40-475): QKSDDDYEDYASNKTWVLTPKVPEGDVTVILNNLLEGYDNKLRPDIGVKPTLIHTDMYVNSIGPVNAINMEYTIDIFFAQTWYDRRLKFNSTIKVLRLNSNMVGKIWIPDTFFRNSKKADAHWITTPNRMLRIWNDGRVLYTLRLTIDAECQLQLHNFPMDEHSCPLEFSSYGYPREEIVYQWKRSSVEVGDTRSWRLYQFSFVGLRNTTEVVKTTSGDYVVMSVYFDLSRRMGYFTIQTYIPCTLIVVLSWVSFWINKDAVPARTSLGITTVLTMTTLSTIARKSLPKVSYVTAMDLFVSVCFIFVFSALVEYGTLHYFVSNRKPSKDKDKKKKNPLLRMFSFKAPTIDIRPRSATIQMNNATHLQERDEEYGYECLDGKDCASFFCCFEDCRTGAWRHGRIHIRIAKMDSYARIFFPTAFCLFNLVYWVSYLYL
Cell pellets were suspended in Krebs-tris buffer (4.8 mM KCl, 1.2 mM CaCl2, 1.2 mM MgCl2, 120 mM NaCl, 15 mM Tris; pH 7.5; binding assay buffer), homogenized by polytron for ca. 20 sec on ice and centrifuged for 60 min at 4° C. (50000 g; Sorvall, rotor: SM24=20000 rpm). The cell pellets were resuspended in Krebs-tris buffer and homogenized by polytron for ca. 15 sec on ice. Protein was measured (Bradford method, Bio-Rad) and aliquots of 1 mL were prepared and stored at −80° C.
Assays were incubated to equilibrium for 1 hour at 4° C. and harvested onto GF/C uni-filters (Packard) by filtration using a Packard harvester and washing with ice-cold wash buffer (50 mM Tris; pH 7.5). After drying, filter-retained radioactivity was detected by liquid scintillation counting. Ki values were calculated using Excel-Fit (Microsoft) and are the means of two determinations.
For the compound `Cc1onc(-c2ccc(Cl)cn2)c1COc1ccc(C(=O)O)nn1` [Example 113, 6-[3-(5-Chloro-pyridin-2-yl)-5-methyl-isoxazol-4-ylmethoxy]-pyridazine-3-carboxylic acid], the pKi was 8.68.

For the compound `CNC(=O)c1ccc(OCc2c(-c3ccccn3)noc2C)nn1` [Example 102, 6-(5-Methyl-3-pyridin-2-yl-isoxazol-4-ylmethoxy)-pyridazine-3-carboxylic acid methylamide], the pKi was 9.05.

In the case of `Cc1onc(-c2ccc(F)cc2)c1COc1ccc(C(=O)NC2CCOCC2)nn1` [Example 63, 6-[3-(4-Fluoro-phenyl)-5-methyl-isoxazol-4-ylmethoxy]-pyridazine-3-carboxylic acid (tetrahydro-pyran-4-yl)-amide], the pKi is 8.62.

Consider `Cc1onc(-c2cccc(F)c2)c1COc1ccc(C(=O)NCCO)nn1` [Example 52, 6-[3-(3-Fluoro-phenyl)-5-methyl-isoxazol-4-ylmethoxy]-pyridazine-3-carboxylic acid (2-hydroxy-ethyl)-amide], for which the pKi is 8.18.

As for `Cc1cc(OCc2c(-c3ccccc3)noc2C)nnc1C(=O)NC(C)C` [Example 46, 4-Methyl-6-(5-methyl-3-phenyl-isoxazol-4-ylmethoxy)-pyridazine-3-carboxylic acid isopropylamide], the pKi is 8.44.

For `CCOC(=O)c1ccc(OCc2c(-c3ccc(F)cc3)noc2C)nn1` [Example 58, 6-[3-(4-Fluoro-phenyl)-5-methyl-isoxazol-4-ylmethoxy]-pyridazine-3-carboxylic acid ethyl ester], the pKi is 8.48.

With `Cc1onc(-c2ccccc2)c1COc1ccc(N)nn1` [Example 15, 6-(5-Methyl-3-phenyl-isoxazol-4-ylmethoxy)-pyridazin-3-ylamine], the pKi was 8.39.

Consider `Cc1onc(-c2ccccc2)c1COc1ccc(NC(=O)C2CC2)nn1` [Example 21, Cyclopropanecarboxylic acid [6-(5-methyl-3-phenyl-isoxazol-4-ylmethoxy)-pyridazin-3-yl]-amide], for which the pKi was 8.28.

For `Cc1onc(-c2ccccn2)c1COc1ccc(C(=O)NC2CCOCC2)nn1` [Example 94, 6-(5-Methyl-3-pyridin-2-yl-isoxazol-4-ylmethoxy)-pyridazine-3-carboxylic acid (tetrahydro-pyran-4-yl)-amide], the pKi was 8.54.

As for `CCOC(=O)c1ccc(OCc2c(-c3ccccn3)noc2C)nn1` [Example 93, 6-(5-Methyl-3-pyridin-2-yl-isoxazol-4-ylmethoxy)-pyridazine-3-carboxylic acid ethyl ester], the pKi is 8.54.

Regarding `O=C(NC1CCOCC1)c1ccc(OCc2conc2-c2ccc(F)cc2)nn1` [Example 122, 6-[3-(4-Fluoro-phenyl)-isoxazol-4-ylmethoxy]-pyridazine-3-carboxylic acid (tetrahydro-pyran-4-yl)-amide], the pKi is 7.46.

On to `Cc1onc(-c2ccccc2)c1COc1ccc(C(=O)NC2CCOCC2)nn1` [Example 9, 6-(5-Methyl-3-phenyl-isoxazol-4-ylmethoxy)-pyridazine-3-carboxylic acid (tetrahydro-pyran-4-yl)-amide], for which the pKi is 8.32.

For the compound `Cc1onc(-c2ccccc2)c1COc1ccc(C(=O)NC(C)C)nn1` [Example 7, 6-(5-Methyl-3-phenyl-isoxazol-4-ylmethoxy)-pyridazine-3-carboxylic acid isopropylamide], the pKi is 8.23.

As to `Cc1cc(OCc2c(-c3ccccc3)noc2C)nnc1C(=O)NC1CC1` [Example 45, 4-Methyl-6-(5-methyl-3-phenyl-isoxazol-4-ylmethoxy)-pyridazine-3-carboxylic acid cyclopropylamide], the pKi is 8.85.

For `Cc1onc(-c2ccccc2)c1COc1ccc(NC(=O)c2ccno2)nn1` [Example 33, Isoxazole-5-carboxylic acid [6-(5-methyl-3-phenyl-isoxazol-4-ylmethoxy)-pyridazin-3-yl]-amide], the pKi is 8.27.

For the compound `CCNC(=O)c1ccc(OCc2c(-c3ccncc3)noc2C)nn1` [Example 109, 6-(5-Methyl-3-pyridin-4-yl-isoxazol-4-ylmethoxy)-pyridazine-3-carboxylic acid ethylamide], the pKi was 7.85.

Take `CCOC(=O)c1nnc(OCc2c(-c3ccccc3)noc2C)cc1C` [Example 42, 4-Methyl-6-(5-methyl-3-phenyl-isoxazol-4-ylmethoxy)-pyridazine-3-carboxylic acid ethyl ester]: the pKi is 8.72.

For `Cc1onc(-c2cccc(F)c2)c1COc1ccc(C(=O)NC2CC2)nn1` [Example 55, 6-[3-(3-Fluoro-phenyl)-5-methyl-isoxazol-4-ylmethoxy]-pyridazine-3-carboxylic acid cyclopropylamide], the pKi is 8.17.

Turning to `Cc1onc(-c2ccccc2)c1COc1ccc(C(=O)NCCO)nn1` [Example 12, 6-(5-Methyl-3-phenyl-isoxazol-4-ylmethoxy)-pyridazine-3-carboxylic acid (2-hydroxy-ethyl)-amide], the pKi was 8.47.

As for `Cc1onc(-c2ccccn2)c1COc1ccc(Cl)nn1` [Example 92, 3-Chloro-6-(5-methyl-3-pyridin-2-yl-isoxazol-4-ylmethoxy)-pyridazine], the pKi was 8.42.

`Cc1onc(-c2ccccc2)c1COc1ccc(Br)nn1` [Example 2, 3-Bromo-6-(5-methyl-3-phenyl-isoxazol-4-ylmethoxy)-pyridazine]: the pKi was 8.12.

For `Cc1onc(-c2ccccc2)c1COc1ccc(Cl)nn1` [Example 1, 3-Chloro-6-(5-methyl-3-phenyl-isoxazol-4-ylmethoxy)-pyridazine], the pKi is 8.02.

With `COCCNC(=O)c1ccc(OCc2c(-c3ccccc3)noc2C)nn1` [Example 6, 6-(5-Methyl-3-phenyl-isoxazol-4-ylmethoxy)-pyridazine-3-carboxylic acid (2-methoxy-ethyl)-amide], the pKi was 8.27.

Regarding `Cc1onc(-c2ccccc2)c1COc1ccc(NC(=O)c2ccccc2)nn1` [Example 30, N-[6-(5-Methyl-3-phenyl-isoxazol-4-ylmethoxy)-pyridazin-3-yl]-benzamide], the pKi is 7.86.

For `Cc1onc(-c2cccc(F)c2)c1COc1ccc(C(=O)NC(C)C)nn1` [Example 54, 6-[3-(3-Fluoro-phenyl)-5-methyl-isoxazol-4-ylmethoxy]-pyridazine-3-carboxylic acid isopropylamide], the pKi is 8.08.

`CCNC(=O)c1ccc(OCc2c(-c3ccccn3)noc2C)nn1` [Example 103, 6-(5-Methyl-3-pyridin-2-yl-isoxazol-4-ylmethoxy)-pyridazine-3-carboxylic acid ethylamide]: the pKi is 8.82.

`Cc1onc(-c2ccccn2)c1COc1ccc(C(=O)NCC2CC2)nn1` [Example 100, 6-(5-Methyl-3-pyridin-2-yl-isoxazol-4-ylmethoxy)-pyridazine-3-carboxylic acid cyclopropylmethyl-amide]: the pKi was 8.39.

For `Cc1onc(-c2ccccn2)c1COc1ccc(C(=O)NC(C)C)nn1` [Example 95, 6-(5-Methyl-3-pyridin-2-yl-isoxazol-4-ylmethoxy)-pyridazine-3-carboxylic acid isopropylamide], the pKi is 8.57.
